This note sets out measurements from patent publication US20050282743A1, “Molecular interactions in cells” (Arbor Vita Corporation, priority 2001, published 2005).

Ends that are not written are not given here. Peptide text beside a SMILES is read from it. * marks the point of attachment. Biotin = O=C1N[C@H]2[C@H](CS[C@H]2CCCCC(=O)*)N1

Common to all, as to experiment: G' assay (10 uM PL peptide), results of TABLE 7 and TABLE 12
Common to all, as to format: binding

Test [1] has as its target T1, PDZ protein (GST-PDZ fusion) (Homo sapiens, UniProt Q9UPQ7).
T1 construct: made in house; host or cells: E. coli (DH5alpha, BL21 or JM109)
T1 sequence (Q9UPQ7 1-1066): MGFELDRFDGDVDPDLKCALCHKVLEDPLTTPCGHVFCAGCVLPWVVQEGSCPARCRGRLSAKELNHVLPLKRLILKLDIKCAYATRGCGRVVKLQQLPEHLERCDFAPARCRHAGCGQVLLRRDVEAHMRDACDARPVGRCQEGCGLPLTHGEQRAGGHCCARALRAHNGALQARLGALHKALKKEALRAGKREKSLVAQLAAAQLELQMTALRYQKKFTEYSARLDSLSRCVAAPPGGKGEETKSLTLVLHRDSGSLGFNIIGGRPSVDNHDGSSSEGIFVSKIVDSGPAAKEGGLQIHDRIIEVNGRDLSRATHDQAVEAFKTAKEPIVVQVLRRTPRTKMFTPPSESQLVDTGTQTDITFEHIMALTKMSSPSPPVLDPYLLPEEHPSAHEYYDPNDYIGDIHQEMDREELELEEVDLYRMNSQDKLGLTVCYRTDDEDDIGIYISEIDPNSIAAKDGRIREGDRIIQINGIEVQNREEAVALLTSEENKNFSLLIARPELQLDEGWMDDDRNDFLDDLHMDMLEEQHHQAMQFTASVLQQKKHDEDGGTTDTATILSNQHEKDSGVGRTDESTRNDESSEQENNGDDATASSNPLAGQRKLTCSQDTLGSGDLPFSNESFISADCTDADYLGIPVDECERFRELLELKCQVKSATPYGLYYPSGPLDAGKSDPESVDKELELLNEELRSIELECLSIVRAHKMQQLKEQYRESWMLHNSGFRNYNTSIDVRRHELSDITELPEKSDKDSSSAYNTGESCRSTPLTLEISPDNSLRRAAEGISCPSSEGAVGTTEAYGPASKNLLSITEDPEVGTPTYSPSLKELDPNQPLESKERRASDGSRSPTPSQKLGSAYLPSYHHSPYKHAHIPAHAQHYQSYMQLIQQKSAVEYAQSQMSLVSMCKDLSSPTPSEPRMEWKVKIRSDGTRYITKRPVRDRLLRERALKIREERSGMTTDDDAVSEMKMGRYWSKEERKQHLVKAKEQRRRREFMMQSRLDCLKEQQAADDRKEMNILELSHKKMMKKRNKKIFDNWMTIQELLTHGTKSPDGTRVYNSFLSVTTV
The conditions noted are these: PDZ KIAA1095, PDZ Domain 1. In a few lines:
(§1)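 Biotin-PL peptide (N-term label), 10 uM vs GST-PDZ; protein 5 ug/ml by default. A450 nm binned: 1 = 0-1, 2 = 1-2, 3 = 2-3, 4 = 3-4, 5 = >4 on >2 repeats, 0 = no binding.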

Test [2] has as its target T2, PDZ protein (GST-PDZ fusion) (Homo sapiens, UniProt Q9NR12).
T2 construct: made in house; host or cells: E. coli (DH5alpha, BL21 or JM109)
The conditions noted are these: PDZ ENIGMA, PDZ Domain 1. In a few lines:
as §1

Test [3] addresses T3, PDZ protein (GST-PDZ fusion) (Homo sapiens, UniProt Q99767).
T3 construct: made in house; host or cells: E. coli (DH5alpha, BL21 or JM109)
T3 sequence (Q99767 1-749): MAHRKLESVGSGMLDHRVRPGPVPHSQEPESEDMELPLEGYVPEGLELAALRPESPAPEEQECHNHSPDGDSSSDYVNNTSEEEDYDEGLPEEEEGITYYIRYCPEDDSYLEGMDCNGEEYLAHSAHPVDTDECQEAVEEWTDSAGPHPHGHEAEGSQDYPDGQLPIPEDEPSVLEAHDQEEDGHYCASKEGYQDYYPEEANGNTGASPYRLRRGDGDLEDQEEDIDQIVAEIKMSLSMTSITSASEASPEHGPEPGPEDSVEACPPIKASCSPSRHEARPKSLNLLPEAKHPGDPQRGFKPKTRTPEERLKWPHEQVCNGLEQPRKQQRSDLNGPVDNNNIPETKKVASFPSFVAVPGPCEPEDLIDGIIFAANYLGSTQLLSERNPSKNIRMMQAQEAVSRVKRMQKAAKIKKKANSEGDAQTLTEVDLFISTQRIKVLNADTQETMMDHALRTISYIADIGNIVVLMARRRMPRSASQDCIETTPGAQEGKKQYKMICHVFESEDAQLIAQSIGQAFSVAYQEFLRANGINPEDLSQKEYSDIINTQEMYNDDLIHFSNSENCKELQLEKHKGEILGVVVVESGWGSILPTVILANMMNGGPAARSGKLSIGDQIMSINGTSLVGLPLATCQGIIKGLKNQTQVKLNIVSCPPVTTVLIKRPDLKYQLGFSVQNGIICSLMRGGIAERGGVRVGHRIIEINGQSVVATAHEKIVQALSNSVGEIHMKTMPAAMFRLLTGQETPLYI
Particulars: PDZ X11-beta. In a few lines: as §1

For test [4], the target named is T4, PDZ protein (GST-PDZ fusion) (Homo sapiens, UniProt Q9ULJ8).
T4 construct: made in house; host or cells: E. coli (DH5alpha, BL21 or JM109)
Particulars: PDZ KIAA1222, PDZ Domain 1. In outline:
as §1

T4 sequence (Q9ULJ8 whole entry, the tested form may be a part): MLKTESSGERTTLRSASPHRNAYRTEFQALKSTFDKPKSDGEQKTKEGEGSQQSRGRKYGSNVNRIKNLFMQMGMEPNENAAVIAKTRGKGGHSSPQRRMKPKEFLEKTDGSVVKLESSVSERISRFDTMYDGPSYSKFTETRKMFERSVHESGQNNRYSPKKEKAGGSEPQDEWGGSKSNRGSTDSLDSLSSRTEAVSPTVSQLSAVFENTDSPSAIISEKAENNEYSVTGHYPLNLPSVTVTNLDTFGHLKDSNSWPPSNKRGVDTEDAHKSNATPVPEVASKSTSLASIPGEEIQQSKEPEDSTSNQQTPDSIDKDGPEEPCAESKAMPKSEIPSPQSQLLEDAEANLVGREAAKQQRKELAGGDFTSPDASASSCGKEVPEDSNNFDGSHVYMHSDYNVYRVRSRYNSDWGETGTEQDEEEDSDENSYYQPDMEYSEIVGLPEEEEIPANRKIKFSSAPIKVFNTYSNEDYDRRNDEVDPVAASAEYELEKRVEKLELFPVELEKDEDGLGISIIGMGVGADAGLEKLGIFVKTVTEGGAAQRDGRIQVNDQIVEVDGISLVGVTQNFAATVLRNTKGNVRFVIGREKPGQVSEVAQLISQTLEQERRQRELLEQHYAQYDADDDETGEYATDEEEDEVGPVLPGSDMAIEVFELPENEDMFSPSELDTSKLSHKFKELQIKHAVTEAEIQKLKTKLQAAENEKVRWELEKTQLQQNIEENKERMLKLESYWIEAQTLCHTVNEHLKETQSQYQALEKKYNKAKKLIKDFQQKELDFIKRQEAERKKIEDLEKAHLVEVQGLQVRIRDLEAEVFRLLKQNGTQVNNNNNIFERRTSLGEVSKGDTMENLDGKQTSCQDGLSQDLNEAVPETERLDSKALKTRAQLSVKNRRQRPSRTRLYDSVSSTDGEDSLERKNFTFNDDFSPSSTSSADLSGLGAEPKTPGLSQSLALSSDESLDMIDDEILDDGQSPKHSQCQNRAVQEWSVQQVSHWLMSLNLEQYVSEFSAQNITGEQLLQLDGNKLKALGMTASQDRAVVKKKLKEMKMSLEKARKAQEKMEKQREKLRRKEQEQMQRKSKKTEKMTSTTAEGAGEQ
T2 sequence (Q9NR12 whole entry, the tested form may be a part): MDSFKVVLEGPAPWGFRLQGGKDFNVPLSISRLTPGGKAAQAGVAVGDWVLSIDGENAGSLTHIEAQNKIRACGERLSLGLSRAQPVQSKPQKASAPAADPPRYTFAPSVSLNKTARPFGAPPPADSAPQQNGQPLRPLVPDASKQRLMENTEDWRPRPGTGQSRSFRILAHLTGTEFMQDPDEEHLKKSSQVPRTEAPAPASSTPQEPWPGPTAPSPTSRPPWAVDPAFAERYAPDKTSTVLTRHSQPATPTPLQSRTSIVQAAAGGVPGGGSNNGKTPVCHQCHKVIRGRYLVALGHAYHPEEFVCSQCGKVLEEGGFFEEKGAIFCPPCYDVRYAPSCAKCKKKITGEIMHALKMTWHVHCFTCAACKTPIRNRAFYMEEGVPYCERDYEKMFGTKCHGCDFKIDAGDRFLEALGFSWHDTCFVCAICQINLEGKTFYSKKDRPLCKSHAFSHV

As for `CC(C)C[C@H](NC(=O)[C@H](CCCNC(=N)N)NC(=O)CNC(=O)CNC(=O)[C@H](CCCNC(=N)N)NC(=O)[C@H](C)NC(=O)[C@@H]1CCCN1C(=O)[C@H](CCCNC(=N)N)NC(=O)CNC(=O)CNC(=O)[C@@H](NC(=O)[C@H](C)NC(=O)CCCC[C@@H]1SC[C@@H]2NC(=O)N[C@@H]21)C(C)C)C(=O)N[C@@H](CCC(N)=O)C(=O)NCC(=O)N[C@@H](CCCNC(=N)N)C(=O)N[C@@H](CCCNC(=N)N)C(=O)N[C@@H](CCC(N)=O)C(=O)N[C@H](C(=O)N[C@@H](CCC(N)=O)C(=O)N[C@H](C(=O)O)C(C)C)[C@@H](C)O` [HPV E6 58 (modified)] (Biotin-AVGGRPARGGRLQGRRQTQV-OH; C-terminus assumed), in test [1], the Classification is reported as 1 (A450 nm 0-1).

As to “VHDAESSDEDGYDWGPATDL (Biotin-VHDAESSDEDGYDWGPATDL) [zona occludens 3 (ZO-3)]”, the Classification in test [2] is 1 (A450 nm 0-1).

As for `CC(C)C[C@H](NC(=O)[C@H](CC(=O)O)NC(=O)[C@H](CO)NC(=O)[C@H](CCC(=O)O)NC(=O)CNC(=O)[C@H](Cc1ccc(O)cc1)NC(=O)[C@H](CC(C)C)NC(=O)[C@H](C)NC(=O)[C@H](CO)NC(=O)[C@H](CO)NC(=O)[C@H](Cc1ccccc1)NC(=O)[C@H](C)NC(=O)[C@H](C)NC(=O)[C@H](Cc1ccc(O)cc1)NC(=O)[C@H](CC(=O)O)NC(=O)[C@H](CC(C)C)NC(=O)[C@H](C)NC(=O)CNC(=O)[C@@H]1CCCN1C(=O)[C@@H](NC(=O)CCCC[C@@H]1SC[C@@H]2NC(=O)N[C@@H]21)C(C)C)C(=O)O` [a-actinin 2] (Biotin-VPGALDYAAFSSALYGESDL-OH; C-terminus assumed), the Classification in test [2] is given as 5 (A450 nm of 4 more than 2× repeated).

For “ALVLIAFCIIRRRPSAYQAL (Biotin-ALVLIAFCIIRRRPSAYQAL) [CD68]”, the Classification in test [3] (PDZ Domain 2) is 1 (A450 nm 0-1).

As for `CSCC[C@H](NC(=O)[C@H](C)NC(=O)[C@H](CCCNC(=N)N)NC(=O)CNC(=O)[C@@H](NC(=O)[C@H](Cc1c[nH]c2ccccc12)NC(=O)[C@H](CCCNC(=N)N)NC(=O)CNC(=O)CCCC[C@@H]1SC[C@@H]2NC(=O)N[C@@H]21)[C@@H](C)O)C(=O)N[C@@H](CO)C(=O)N[C@@H](C)C(=O)N[C@@H](Cc1c[nH]c2ccccc12)C(=O)N[C@@H](CCCCN)C(=O)N1CCC[C@H]1C(=O)N[C@H](C(=O)N[C@@H](CCCNC(=N)N)C(=O)N[C@@H](CCCNC(=N)N)C(=O)N[C@@H](CCC(=O)O)C(=O)N[C@H](C(=O)N[C@@H](CCC(=O)O)C(=O)N[C@H](C(=O)O)C(C)C)[C@@H](C)O)[C@@H](C)O` [HPV E6 #35 (modified)] (Biotin-GRWTGRAMSAWKPTRRETEV-OH; C-terminus assumed), the Classification in test [1] is given as 4 (A450 nm 3-4).

On to `CC[C@H](C)[C@H](NC(=O)CNC(=O)[C@H](CO)NC(=O)[C@H](Cc1ccccc1)NC(=O)[C@@H](NC(=O)[C@H](CS)NC(=O)CNC(=O)CNC(=O)[C@H](C)NC(=O)[C@@H]1CCCN1C(=O)[C@@H](NC(=O)[C@@H]1CCCN1C(=O)CCCC[C@@H]1SC[C@@H]2NC(=O)N[C@@H]21)[C@@H](C)CC)[C@@H](C)O)C(=O)N[C@@H](Cc1ccccc1)C(=O)N1CCC[C@H]1C(=O)N[C@H](C(=O)N[C@@H](CC(C)C)C(=O)N[C@H](C(=O)N[C@@H](CO)C(=O)N1CCC[C@H]1C(=O)N[C@@H](CC(C)C)C(=O)O)[C@@H](C)O)[C@@H](C)O` [KIA 1481] (Biotin-PIPAGGCTFSGIFPTLTSPL-OH; C-terminus assumed), for which the Classification in test [1] is listed as 1 (A450 nm 0-1).

“A2AA_HUMAN (modified) (Biotin-HDFRRAFKKILARGDRKRIV; not fully specified)”: the Classification in test [3] (PDZ Domain 1) is recorded as 2 (A450 nm 1-2); in test [3] (PDZ Domain 2) it was 1 (A450 nm 0-1).

`CC(C)C[C@H](NC(=O)[C@H](C)NC(=O)[C@@H](NC(=O)[C@H](CCC(=O)O)NC(=O)[C@H](CCCNC(=N)N)NC(=O)[C@H](CCCNC(=N)N)NC(=O)CNC(=O)[C@H](CCC(N)=O)NC(=O)[C@H](CC(C)C)NC(=O)[C@H](CCCNC(=N)N)NC(=O)CNC(=O)CNC(=O)[C@H](CCCNC(=N)N)NC(=O)[C@H](C)NC(=O)[C@H](CO)NC(=O)[C@H](CCCNC(=N)N)NC(=O)CNC(=O)CNC(=O)[C@H](C)NC(=O)[C@H](C)NC(=O)CCCC[C@@H]1SC[C@@H]2NC(=O)N[C@@H]21)[C@@H](C)O)C(=O)O` [HPV E6 33 (modified)] (Biotin-AAGGRSARGGRLQGRRETAL-OH; C-terminus assumed): in test [1], the Classification is given as 5 (A450 nm of 4 more than 2× repeated).

As for “KTMPAAMFRLLTGQETPLYI (Biotin-KTMPAAMFRLLTGQETPLYI) [MINT-2]”, the Classification in test [4] is listed as 1 (A450 nm 0-1).

Consider TQGFPGPATWRRISSLESEV, for which the Classification in test [1] was 1 (A450 nm 0-1).

With “GGGGGSGGGGGSGIESVKI [GLUR2 (glutamate receptor 2-modified)]”, the Classification in test [2] is 1 (A450 nm 0-1).

In the case of `CC[C@H](C)[C@H](NC(=O)[C@H](Cc1ccc(O)cc1)NC(=O)[C@@H](NC(=O)[C@@H]1CCCN1C(=O)[C@H](CCC(N)=O)NC(=O)[C@H](CCC(=O)O)NC(=O)[C@H](CCC(N)=O)NC(=O)[C@H](C)NC(=O)[C@@H](NC(=O)[C@H](CC(C)C)NC(=O)[C@H](CC(C)C)NC(=O)[C@H](CCCNC(=N)N)NC(=O)[C@H](Cc1ccc(O)cc1)NC(=O)[C@H](CCSC)NC(=O)[C@H](C)NC(=O)[C@H](C)NC(=O)[C@@H]1CCCN1C(=O)[C@H](CCSC)NC(=O)[C@@H](NC(=O)[C@H](CCCCN)NC(=O)CCCC[C@@H]1SC[C@@H]2NC(=O)N[C@@H]21)[C@@H](C)O)[C@@H](C)O)C(C)C)C(=O)O` [MINT-1] (Biotin-KTMPAAMYRLLTAQEQPVYI-OH; C-terminus assumed), the Classification in test [4] is recorded as 1 (A450 nm 0-1).

As for `CC[C@H](C)[C@H](NC(=O)[C@H](CCCCN)NC(=O)[C@@H](NC(=O)[C@H](CO)NC(=O)[C@@H]1CCCN1C(=O)[C@H](Cc1ccccc1)NC(=O)[C@@H](NC(=O)[C@@H](NC(=O)[C@H](CCCNC(=N)N)NC(=O)[C@H](CCC(=O)O)NC(=O)[C@H](CC(C)C)NC(=O)[C@H](CC(C)C)NC(=O)[C@H](CC(C)C)NC(=O)[C@@H](NC(=O)CNC(=O)[C@@H](NC(=O)CCCC[C@@H]1SC[C@@H]2NC(=O)N[C@@H]21)C(C)C)[C@@H](C)O)C(C)C)[C@@H](C)CC)C(C)C)C(=O)N[C@@H](C)C(=O)N[C@H](C(=O)N[C@@H](CC(C)C)C(=O)N[C@H](C(=O)O)C(C)C)[C@@H](C)O` [Adenovirus E4 Type9], in test [4] (PL peptide 10 uM), the Classification is reported as 1 (A450 nm 0-1).

For “ELLQFCRTPNPALKNGQYWV (Biotin-ELLQFCRTPNPALKNGQYWV)”, the Classification in test [3] (PDZ Domain 2) is reported as 2 (A450 nm 1-2).
